Where two headings read alike, the source gives them in different places.
Columns and labels:
[1] = HPLC analysis of salt-screening products for decomposition; format: physicochemical; settings: solvent system THF and Water (95:5 vol %)
Text: (§1) All samples were inspected visually and by Polarized light microscopy at every step listed above to check any formation of crystalline products. Any crystalline products obtained from these procedures were isolated by vacuum filtration and, where possible, analyzed by FT-Raman. Unique crystalline products were subjected to further analyses by PXRD, DSC, TGA-IR, and HPLC, as necessary.

[2] = Salt-screening study (crystalline form screening of Compound 1 with counterions); format: physicochemical; settings: for formation of pure and stable crystalline salt form, overall salt screen: approximately 360 screening experiments, FT-Raman and PXRD
Description: During the salt-screening step, 60 combinations of […] counterions with nine solvent systems were tested.
The screening studies were conducted in two stages.
In Stage 1, the samples involving counterion Nos. 1-6 listed in Table 1 were paired with solvent Nos. 1-6 listed in Table 2, whereas samples involving counterion Nos. 7 and 8 were paired with solvent Nos. 1-5 and 8.
In Stage 2, a few samples that remained undissolved and amorphous in the first stage were 1) subjected to rapid solvent evaporation under vacuum; 2) dissolved in solvent Nos. 7-9 listed in Table 2; 3) cooled to 5° C. and held at 5° C. for 72 hrs; and 4) allowed to evaporate at ambient conditions over 3-7 days.
as §1

pKa of Compound 1 = format: physicochemical
[3] = Chemical stability of Compound 1 in solution; format: physicochemical; settings: solutions having pH values between 2 and 8
[4] = Solubility of Compound 1 in salt-screening solvents; format: physicochemical; settings: for solubility: organic solvent or mixture, read-out: solubility of Compound 1 (S)
Description: Nine solvent systems were evaluated in the Salt-screening study. The solvents were selected based on the solubility data accumulated during preceding studies. In addition, solvents represented a diverse set of polarities, dielectric constants, dipole moments, and hydrogen-bond donor/acceptor attributes to promote crystallization of salts.

[5] = Open-air handling and stability of isolated potassium salt; format: physicochemical
Description: The potassium salt was subsequently reproduced at 50 mg and 300 mg scales using seeding, which facilitated crystallization of the several hours of amorphous intermediate phase. […] Once a free-flowing powder was isolated, the powder was stable in open-air for at least 7 days.

[6] = counterion itself; cited from earlier work

SMILES: [Mg+2].[OH-].[OH-] [Magnesium hydroxide]
- decomposition in screening products by HPLC [1]: significant decomposition
- formation of pure and stable crystalline salt form, overall salt screen [2]: no pure and stable crystalline salt was formed

SMILES: O=C(O)C[C@@H]1CC[C@H](NC(=O)Cc2cccs2)B(O)O1 [Compound 1, 2-((3R,6S)-2-hydroxy-3-(2-(thiophen-2-yl)acetamido)-1,2 oxaborinan-6-yl)acetic acid]
- pKa (pKa of Compound 1): 3.92
- chemical stability of boronic acid moiety in solution [3]: chemically stable
- solubility ([4]; 1,4-dioxane): 1 to 10 mg/mL
- solubility ([4]; MTBE): < 1 mg/mL
- solubility ([4]; THEF Water (95:5% vol.)): > 1 mg/mL
- solubility of Compound 1 ([4]; Water): Low solubility of Compound 1
- solubility ([4]; acetone): < 1 mg/mL
- solubility ([4]; acetonitrile (ACN)): < 1 mg/mL
- solubility ([4]; ethyl acetate): < 1 mg/mL
- solubility ([4]; ACN: Water (90:10% vol.)): < 20 mg/mL

SMILES: O=C([O-])C[C@@H]1CC[C@H](NC(=O)Cc2cccs2)B(O)O1.[K+] [Compound 1A, potassium salt of 2-((3R,6S)-2-hydroxy-3-(2-(thiophen-2-yl)acetamido)-1,2-oxaborinan-6-yl)acetic acid]
- deliquescence on isolation ([5]; isolated in open air, reduced or eliminated under nitrogen blanket): may undergo deliquescence
- stability of isolated free-flowing powder in open-air ([5]; open air): at least 7 days
- formation of pure and stable crystalline salt form, overall salt screen [2]: yielded a pure and stable crystalline form
- formation of pure and stable crystalline salt form, overall salt screen ([2]; listed as potassium salt of compound 1): yielded crystalline products
- propensity for polymorphism ([2]; only one crystalline form observed in the study): low propensity for polymorphism

SMILES: [K+] [potassium]
- decomposition in screening products by HPLC [1]: significant decomposition

SMILES: C[N+](C)(C)CCO.[OH-] [Choline hydroxide]
- decomposition in screening products by HPLC [1]: significant decomposition
- pKa3 [6]: >11

SMILES: [Ca+2].[OH-].[OH-] [Calcium hydroxide]
- decomposition in screening products by HPLC [1]: significant decomposition
- formation of pure and stable crystalline salt form, overall salt screen [2]: no pure and stable crystalline salt was formed

SMILES: CC(C)(C)[O-].[K+] [Potassium t-butoxide]
- pKa3 [6]: ~14

Reference: patent US9687497B1, “Salts and polymorphs of cyclic boronic acid ester derivatives and therapeutic uses thereof” (Rempex Pharmaceuticals, Inc., priority 2014, dated 2017)
